What was measured:
insects = conditions: known from U.S. Pat. No. 3,607,991; cited from earlier work
[1] = system: insects and mites (Acarina); assay: Insecticidal and acaricidal activity (statement in words); assay type: in vivo; conditions: sucking and biting insects and mites (Acarina)
warm-blooded animals = assay: Toxicity to warm-blooded animals (statement in words); assay type: in vivo; conditions: as compared to prior art compounds of analogous structure and same type of action
[2] = Toxicity test/peroral (LD50, evaluation after 7 days); conditions: rat, in vivo, po
Description: Test animal: Albino rat (Rattus norvegicus)
Dosing was effected volumetrically after weighing the test animals. A steel knob-ended probe was used for oral administration.

SMILES: CCOP(=S)(OCC)Oc1ccc(C#N)cc1 [Compound A, O,O-diethyl-O-(4-cyanophenyl)-thionophosphoric acid ester]
- insecticidal activity (insects): possess insecticidal activity

SMILES: CCCSP(=S)(OCC)Oc1ccc(C#N)cc1Br (stereo not shown) [I, O-ethyl-S-n-propyl-O-(2-bromo-4-cyanophenyl)-thionothiol-phosphoric acid ester]
- insecticidal and acaricidal activity [1]: good insecticidal and acaricidal activity
- toxicity to warm-blooded animals (warm-blooded animals): very low toxicity
- LD50 at 168 h [2]: 100 to 250 mg/kg

Reference: US3966850A, “O-ethyl-S-n-propyl-O-(2-bromo-4-cyanophenyl)-thionothiol-phosphoric acid ester” (priority 1973, dated 1976)
